# Results reported in patent US20090324737A1, “Antimicrobial And Sporicidal Composition” (priority 2002, published 2009).
# Test system: Bacillus subtilis spores
# Test: Sporicidal activity against Bacillus subtilis spore suspension (cfu pour-plate count vs distilled water controls)
# Type: cell-based
# Details: spore suspension diluted 1:100 into composition
# Description: Spore suspensions were prepared by streaking standard agar plates with Bacillus subtilis and then incubating the plates for 48-72 hours at 37° C. The resulting bacteria and their spores were scraped from the plates and suspended by agitation in a 50% ethanol-water solution for four hours in order to lyse the vegetative cells. The spores were collected by centrifugation, washed three times and then suspended in 50% ethanol-water, resulting in a spore titer of 10^9 spores/mL. […] After treatment, the spore suspensions were diluted in distilled water and duplicate aliquots from each dilution were pour-plated on tripticase soy agar. Total colony-forming units (cfu) were counted after incubation at 37° C. for 24 hours. Sporicidal activity was directly proportional to the reduction of cfu compared to the distilled water controls.
# Test results from representative compositions are summarized in Table 1 and the associated graph of the data (FIG. 2). In addition, test data for exposure to 0.1% L-alanine in the absence of sporicidal agents is included.
compound,measurement,setting,value
C[C@H](N)C(=O)O [L-alanine],Test results of Spore-inactivating Compositions vs. Exposure Time (cfu compared to distilled water controls),exposure time 0.00 hrs,100.0%
same,Test results of Spore-inactivating Compositions vs. Exposure Time (cfu compared to distilled water controls),exposure time 0.25 hrs,106.0%
same,Test results of Spore-inactivating Compositions vs. Exposure Time (cfu compared to distilled water controls),exposure time 0.50 hrs,111.0%
same,Test results of Spore-inactivating Compositions vs. Exposure Time (cfu compared to distilled water controls),exposure time 1.00 hrs,113.0%
same,Test results of Spore-inactivating Compositions vs. Exposure Time (cfu compared to distilled water controls),exposure time 4.00 hrs,116.0%
